Assays:
[1] = test system: white nondescript male mice; experiment: in vivo; settings: white nondescript (outbred), mouse, ip, 2 days
Protocol: The study of acute daily toxicity of Compound I was carried out on white nondescript male mice with body weight 25-28 g, which lived in habitual conditions in vivarium and received feed and water ad libitum. Single dose of Compound I was administered intraperitoneally. The animals were under observation for 2 days after the dosing. The dose levels of Compound I used in the toxicity study were as follows: 800 mg/kg, 1000 mg/kg, 1200 mg/kg, 1500 mg/kg, 1600 mg/kg. Compound I was dissolved in distilled water and administered in 0, 1 ml per 10 g of the body weight of the animal when the doses 800 mg/kg and 1000 mg/kg, and in 0.2 ml per 10 g of the body weight when the doses 1200 mg/kg, 1500 mg/kg, 1600 mg/kg were used. Control animals received distilled water in the volume 0.2 ml per 10 g of the body weight.
Each dose group comprised 10 animals.

mice SAM P 10 [2] = experiment: Antidepressant activity: forced swimming in mice SAM; assay type: in vivo; settings: first 6 minutes of forced swimming
Protocol: Exp. Gerontolol. 1997, […]. et al. Age-related deterioration in conditional avoidance task in the SAM-P/10 mouse, an animal model of spontaneous brain atrophy. Brain Res., 1993, v. 608, p. 266-272). To assess depressive condition the method of forced swimming was used (Porsolt R. D. et al., Behavioral despair in rats: a new model sensitive to antidepressant treatment. Europ. J. […] The mice were placed into cylinder 10 cm in diameter and 25 cm height. Cylinder was filled with water by 1⁄3 (27° C.). After unsuccessful attempts to get out of the water the animals have typical immovable posture, which is regarded as manifestation of “despair”.

mice SAM P 10 [3] = experiment: Anxiolytic activity: elevated criss-cross labyrinth in mice SAM P10; assay type: in vivo; settings: 5 minutes observation
Excerpt: (Takeda T. et al. Senescence-Accelerated Mouse (SAM): A novel murine model of accelerated senescence. J. Amer. Geriatr. Soc. 1991, v. 39, p. 911-919). The animals belonging to this line are characterized by genetically determined depression and impairment of learning capacity, these symptoms intensively aggravate since 6 months of age (accelerated senescence) (Miyamoto M., Characteristics of age-related behavioral changes in senescence-accelerated mouse SAMP8 and SAMP10. Exp. Gerontolol. 1997, v. 32, p. 139-148; Shimada A. et al. Age-related deterioration in conditional avoidance task in the SAM-P/10 mouse, an animal model of spontaneous brain atrophy. Brain Res., 1993, v. 608, p. 266-272). Assessment of anxiety level of the mice was carried out under conditions of “elevated criss-cross labyrinth” (ECCL) method (Pellow S. et al. Validation of open:closed arm entries in elevated plus-maze as a measure of anxiety in the rat. Neurosci Meth J. 1985, No 14, p. 149-167; Voronina T. A. et al. “Textbook for Experimental (Preclinical Study) of novel pharmacological compounds”. Moscow, Medicina. 2005, p. 253-263). Labyrinth comprises crossed bands 5×45 cm, with two opposed compartments having vertical walls 30 cm height (closed, dark arms), and two other compartments are open, light arms. Labyrinth is situated 30 cm above the floor. Central platform […] is located at the cross of the planes. The mice were placed on the central platform with their tails directed to light arm. Time spent by the animals in open and closed arms, and the number of entering light and dark arms was registered. Total observation period comprised 5 minutes for each animal. Time spent in the open arms of the unit was considered as the measure of anxiolytic effect.

O=C([O-])CC[C@H](NC(=O)c1cncc(O)c1)C(=O)[O-].[Ca+2] [Compound I, Calcium N-(5-hydroxynicotinoyl)-L-glutamate]
LD16 [1]: 900 mg/kg | LD84 [1]: 1450 mg/kg | Period of active behaviour (mice SAM P 10 [2]; 10 mg/kg): 190.00 ± 9.50 s | Period of active behaviour (mice SAM P 10 [2]; 20 mg/kg): 225.00 ± 10.97 s | Number of entries the closed arms (mice SAM P 10 [3]; 5 mg/kg): 15.6 ± 2.1 | Number of entries the opened arms (mice SAM P 10 [3]; 5 mg/kg): 5.7 ± 0.6 | Time spent in the closed arms (c) (mice SAM P 10 [3]; 5 mg/kg): 247.0 ± 6.4 c | Time spent in the opened arms (c) (mice SAM P 10 [3]; 5 mg/kg): 21.1 ± 4.6 c | Number of entries the closed arms (mice SAM P 10 [3]; 10 mg/kg): 20.51 ± 3.1 | Number of entries the opened arms (mice SAM P 10 [3]; 10 mg/kg): 7.7 ± 0.2 | Time spent in the closed arms (c) (mice SAM P 10 [3]; 10 mg/kg): 262.0 ± 22.1 c | Time spent in the opened arms (c) (mice SAM P 10 [3]; 10 mg/kg): 23.9 ± 5.8 c | Number of entries the closed arms (mice SAM P 10 [3]; 20 mg/kg): 19.3 ± 2.5 | Number of entries the opened arms (mice SAM P 10 [3]; 20 mg/kg): 13.0 ± 1.1 | Time spent in the closed arms (c) (mice SAM P 10 [3]; 20 mg/kg): 234.8 ± 8.7 c | Time spent in the opened arms (c) (mice SAM P 10 [3]; 20 mg/kg): 28.4 ± 6.2 c
